In BindingDB's records for doi:10.1021/acs.jmedchem.5b00984 (Astrazeneca, 2015):

Target: T1, Progesterone receptor (Homo sapiens, UniProt P06401)
T1 sequence (P06401 whole entry): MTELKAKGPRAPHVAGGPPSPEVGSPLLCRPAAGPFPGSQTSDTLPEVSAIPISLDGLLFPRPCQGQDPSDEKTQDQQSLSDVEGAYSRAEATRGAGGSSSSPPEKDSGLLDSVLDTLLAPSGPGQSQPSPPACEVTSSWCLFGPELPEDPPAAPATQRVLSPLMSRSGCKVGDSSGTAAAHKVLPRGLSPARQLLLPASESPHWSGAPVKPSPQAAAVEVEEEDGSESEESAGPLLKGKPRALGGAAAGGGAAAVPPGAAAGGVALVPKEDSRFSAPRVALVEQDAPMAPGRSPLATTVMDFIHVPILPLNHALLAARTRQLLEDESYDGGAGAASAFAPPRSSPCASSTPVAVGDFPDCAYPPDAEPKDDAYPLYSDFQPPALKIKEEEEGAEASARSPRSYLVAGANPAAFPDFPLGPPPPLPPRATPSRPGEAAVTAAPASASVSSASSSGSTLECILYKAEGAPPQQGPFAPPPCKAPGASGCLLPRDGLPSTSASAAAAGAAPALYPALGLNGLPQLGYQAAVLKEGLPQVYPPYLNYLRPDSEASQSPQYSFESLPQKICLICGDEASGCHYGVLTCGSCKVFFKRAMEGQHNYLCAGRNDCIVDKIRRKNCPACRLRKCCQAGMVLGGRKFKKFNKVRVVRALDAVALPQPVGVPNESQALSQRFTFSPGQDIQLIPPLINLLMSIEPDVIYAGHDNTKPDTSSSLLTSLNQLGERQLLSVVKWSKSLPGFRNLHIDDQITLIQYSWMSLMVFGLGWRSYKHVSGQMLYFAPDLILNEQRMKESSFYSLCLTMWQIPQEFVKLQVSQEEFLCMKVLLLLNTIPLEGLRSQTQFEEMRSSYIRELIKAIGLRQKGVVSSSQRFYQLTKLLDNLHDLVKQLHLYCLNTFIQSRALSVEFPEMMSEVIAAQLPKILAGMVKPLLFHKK
Test: Antagonist activity at progesterone receptor in human MCF cells assessed as estradiol-induced receptor response

| SMILES | IC50 [nM] |
| --- | --- |
| OCCN1CCc2c([nH]c3ccccc23)C1c1ccc(Cl)cc1 (centres undefined) | 2690 |
| C[C@@H]1Cc2c([nH]c3ccccc23)[C@@H](c2ccc(/C=C/C(=O)O)cc2)N1CC(C)(C)F | 3.5 |
| CC/C(=C(\c1ccccc1)c1ccc(/C=C/C(=O)O)cc1)c1ccccc1 [(E)-3-[4-((Z)-1,2-Diphenyl-but-1-enyl)-phenyl]-acrylic acid] | 3980 |
| C[C@@H]1Cc2c([nH]c3ccccc23)[C@@H](c2ccc(Cl)cc2)N1CCC(=O)O | 1510 |
| C[C@@H]1Cc2c([nH]c3ccccc23)[C@@H](c2ccc(/C=C/C(=O)O)cc2)N1CCO | 2290 |
| CC(C)CN1[C@H](c2c(F)cc(/C=C/C(=O)O)cc2F)c2[nH]c3ccccc3c2C[C@H]1C | 0.832 |
| C[C@]12CC[C@@H]3c4ccc(O)cc4C[C@@H](CCCCCCCCC[S+]([O-])CCCC(F)(F)C(F)(F)F)[C@H]3[C@@H]1CC[C@@H]2O (some centres undefined) | 0.209 |
| C[C@@H]1Cc2c([nH]c3ccc(O)cc23)[C@@H](c2ccc(Cl)cc2)N1CCO | 912 |
| CC(C)CN1[C@H](c2ccc(/C=C/C(=O)O)cc2)c2[nH]c3ccccc3c2C[C@H]1C | 3.6 |
| C[C@@H]1Cc2c([nH]c3ccccc23)[C@@H](c2ccc(Cl)cc2)N1C[C@H](C)C(=O)O | 2090 |
| C[C@@H](CO)CN1[C@H](c2ccc(/C=C/C(=O)O)cc2)c2[nH]c3ccccc3c2C[C@H]1C | 50 |
| CC/C(=C(\c1ccc(O)cc1)c1ccc(OCCN(C)C)cc1)c1ccccc1 [[3H]4-OHT] | 0.794 |
| CC/C(=C(\c1ccc(O)cc1)c1ccc(/C=C/C(=O)O)cc1)c1ccccc1 [GW7604] | 12 |
| C[C@@H]1Cc2c([nH]c3ccccc23)[C@@H](c2ccc(Cl)cc2)N1CCO | 724 |
